Our source for the melting point values is patent publication US20100249161A1, “2- ( 2 -HYDROXYPHENYL) -QUINAZOLIN-4-ONES USEFUL FOR TREATING OBESITY AND DIABETES” (priority 2006, published 2010).

Broadly, the melting point is the temperature, or range, at which the solid turns liquid.

SMILES strings stand for the structures.

`Cc1c(Cl)cc(C(C)(C)C)c(O)c1-c1nc2ccc(S(=O)(=O)C(F)(F)F)cc2c(=O)[nH]1` [Example 4, 2-(3-tert-Butyl-5-chloro-2-hydroxy-6-methyl-phenyl)-6-trifluoromethanesulfonyl-3H-quinazolin-4-one] had a melting point of 297 to 298 °C.
The figure for `Cc1c(F)cc(C(C)(C)C)c(O)c1-c1nc2ccc(S(=O)(=O)C(F)(F)F)cc2c(=O)[nH]1` [Example 6, 2-(3-tert-Butyl-5-fluoro-2-hydroxy-6-methyl-phenyl)-6-trifluoromethanesulfonyl-3H-quinazolin-4-one] is 257 to 258 °C; for `CCc1c(Cl)cc(C(C)(C)C)c(O)c1-c1nc2ccc(S(=O)(=O)C(F)(F)F)cc2c(=O)[nH]1` [Example 8, 2-(-3-tert-Butyl-5-chloro-2-hydroxy-6-ethyl-phenyl)-6-trifluoromethanesulfonyl-3H-quinazolin-4-one] it is 285 to 286 °C.
The figure for `Cc1c(F)cc(C(C)(C)C)c(O)c1-c1nc2ccc(F)cc2c(=O)[nH]1` [Example 3, 2-(-3-tert-Butyl-5-fluoro-2-hydroxy-6-methyl-phenyl)-6-fluoro-3H-quinazolin-4-one] is 247 to 248 °C.
The figure for `CC(C)(C)c1cc2c(c(-c3nc4ccc(S(=O)(=O)C(F)(F)F)cc4c(=O)[nH]3)c1O)CCO2` [Example 7, 2-(6-tert-Butyl-5-hydroxy-2,3-dihydro-benzofuran-4-yl)-6-trifluoromethanesulfonyl-3H-quinazolin-4-one] is 235 to 237 °C; for `Cc1c(Cl)cc(C(C)(C)C)c(O)c1-c1nc2ccc(F)cc2c(=O)[nH]1` [Example 2, 2-(3-tert-Butyl-5-chloro-2-hydroxy-6-methyl-phenyl)-6-fluoro-3H-quinazolin-4-one] it is 224 to 225 °C.
